# Laboratory results as given in US20250034196A1, “ESTER DERIVATIVES OF N4-HYDROXYCYTIDINE AND USE THEREOF” (priority 2021, published 2025).
# Key:
# in vitro [1] = conditions: African green monkey
# [2] = system: SARS-CoV-2, Hongkong strain; assay type: in vivo, K18 hACE2 transgenic mice
# Microsome stability = assay type: in vitro ADME, Monkey; conditions: monkey, microsomes, pH 7.4
# Procedure: (§1) Preparation of Solutions: Stock solution (10 mM) of each of test compounds was prepared in DMSO. The stock solution for each compound was then diluted into 100 μM with acetonitrile.
# (§2) Microsome Incubations: Incubation mixtures were prepared in a total volume of 200 μL with final component concentrations as follows: 0.1M PBS (pH 7.4), NADPH (2 mM) and liver microsomes (0.2 mg/mL) as well as test compound (1 μM) or Molnupiravir (1 μM) as a positive control, wherein the NADPH was added after a 5-min preincubation of all other components at 37° C. Pipette-mixed to achieve a homogenous suspension and immediately transferred 20 μL incubate as a 0 min sample to wells in a “Quenching” plate followed by adding 200 μL of acetonitrile with metolazone as IS and pipette-mixing. At 2, 5, 10, and 45 min, pipette-mixed the incubate and serially transfer samples of 20 μL incubate per time point to wells in a separate “Quenching” plate followed by adding 200 μL of acetonitrile with metolazone as IS and pipette-mixing.
# (§3) Sample Analysis: The 96-well plate was centrifuged at 6000 g for 10 min. The supernatant was injected onto the LC-MS/MS system for analysis.
# in vitro [3] = assay type: in vitro ADME; conditions: plasma
# Procedure: as §1
# Plasma Incubations: Plasma incubations were conducted in duplicate in 96-well plate at 37° C. Plasma was prewarmed in a total volume of 198 μL for 5 min at 37° C., then added 2 μL of 100 μM test compound into an incubation well containing plasma, pipette-mixed to achieve a homogenous suspension and immediately transferred 20 μL incubate as a 0 min sample to wells in a “Quenching” plate followed by adding 200 μL of acetonitrile with metolazone as internal standard (IS) and pipette-mixing. At 2, 5, 60, and 90 min, pipette-mixed the incubate and serially transfer samples of 20 μL incubate per time point to wells in a separate “Quenching” plate followed by adding 200 μL of acetonitrile with metolazone as IS and pipette-mixing.
# as §3
# in vitro [4] = assay type: in vitro ADME; conditions: microsomes, pH 7.4
# Procedure: as §1, §2, §3
# in vivo = test: in vivo; parameters: species or system Beagle Dogs; conditions: dog, po; for Cmax: Cmax of EX-2/CH2101; for Tmax: Tmax of EX-2/CH2101; for AUC(0-t): AUClast of EX-2/CH2101; for concentration at 0.25 hr / concentration at 0.5 hr / concentration at 1 hr / concentration at 0.083 hr: Plasma concentration of EX-2/CH2101
# Procedure: Example 174: Pharmacokinetic Study of EX-2 (CH2101), Molnupiravir (CH2017) and its Metabolite NHC (CH2018) Following a Single PO Administration of EX-2 (CH2101) or Molnupiravir (CH2017) in Male and Female Beagle Dogs
# Both test compounds were prepared in 1% methyl cellulose (400 cps, SIGMA, SLCF9694) solution in purified water.
# A total of 6 male+6 female Beagle Dogs, approximately 7-13 kg of bodyweight, were originally purchased from Marshall Biotechnology Co., Ltd. The animals were fasted overnight prior to dosing and food was re-provided after 4 hours post dosing.
# The animals were restrained manually, and approximately 1 mL of blood at each time point was collected into pre-cooled EDTA-K2 tubes via cephalic or saphenous veins. Blood samples were centrifuged at 4° C. (4000 rpm. 5 min) to obtain plasma within 30 min after sample collection. All samples were stored at approximately −80° C. until analysis. The backup samples will be discarded after the in vivo experiment has been completed for two months unless requested.
structure (smiles),measurement,setting,value
CC(=O)ONc1ccn([C@@H]2O[C@H](CO)[C@@H](O)[C@H]2O)c(=O)n1 [EX-2],CC50 at 4 days,in vitro [1],18.2 µM
same,Survival proportions,"[2]; 14-day study, twice daily days 0-6, CH2101 450 mg/kg PO, Remdesivir 25 mg/kg SC",100%
same,Antiviral efficacy in vivo (conclusion),[2]; 450 mpk PO twice daily,optimal antiviral efficacy in vivo
same,Clinical symptoms (observation),[2]; CH2101 450 mpk PO twice daily days 0-6,no infection-related clinical symptom was observed
same,Body weights (observation),[2]; EX-2/CH2101 450 mpk PO twice daily days 0-6,without notable body weight loss observed
same,Virus titer in lung,"[2]; day 5, plaque assay, mean, twice daily days 0-4, CH2101 450 mpk PO, Remdesivir 25 mpk SC",2.64 Log 10 plaque#/g lung
same,"Virus titer in lung, mean difference vs. group 1 (Vehicle group)","[2]; day 5, CH2101 450 mpk PO, Remdesivir 25 mpk SC",3.31 Log
same,Median survival time,"[2]; twice daily days 0-6, CH2101 450 mg/kg PO, Remdesivir 25 mg/kg SC",Undefined
same,half-life at 1 µM,Microsome stability,50.8 min
same,half-life at 1 µM,in vitro [3]; dog,79.1 min
same,half-life at 1 µM,in vitro [3]; human,11.6 min
same,half-life at 1 µM,in vitro [3]; monkey,29.3 min
same,half-life at 1 µM,in vitro [3]; mouse,7.4 min
same,half-life at 1 µM,in vitro [3]; rat,87.8 min
same,half-life at 1 µM,in vitro [4]; dog,76.3 min
same,half-life at 1 µM,in vitro [4]; human,33.5 min
same,half-life at 1 µM,in vitro [4]; mouse,16.2 min
same,half-life at 1 µM,in vitro [4]; rat,288 min
same,Cmax,"in vivo; both sexes, Beagle, 20 mg/kg",12.8 ng/mL
same,Tmax,"in vivo; both sexes, Beagle, 20 mg/kg",15 min
same,AUC(0-t),"in vivo; both sexes, beagle, 10 mg/kg",5.07 ng·h/mL
same,Cmax,"in vivo; both sexes, beagle, 10 mg/kg",15.5 ng/mL
same,concentration at 0.25 hr,"in vivo; both sexes, beagle, 10 mg/kg",16 ng/mL
same,concentration at 0.5 hr,"in vivo; both sexes, beagle, 10 mg/kg",10.7 ng/mL
same,concentration at 1 hr,"in vivo; both sexes, beagle, 10 mg/kg",12.2 ng/mL
same,Tmax,"in vivo; both sexes, beagle, 10 mg/kg",26.3 min
same,AUC(0-t),"in vivo; both sexes, beagle, 20 mg/kg",5.43 ng·h/mL
same,concentration at 0.083 hr,"in vivo; both sexes, beagle, 20 mg/kg",11.2 ng/mL
same,concentration at 0.25 hr,"in vivo; both sexes, beagle, 20 mg/kg",12.8 ng/mL
same,concentration at 0.5 hr,"in vivo; both sexes, beagle, 20 mg/kg",10.5 ng/mL
same,concentration at 1 hr,"in vivo; both sexes, beagle, 20 mg/kg",11.3 ng/mL
same,Plasma concentration of EX-1/NHC/CH2018,"in vivo; both, Beagle, 20 mg/kg, 6 hr",401 ng/mL
same,Plasma concentration of EX-1/NHC/CH2018,"in vivo; both, Beagle, 20 mg/kg, 8 hr",138 ng/mL
same,Plasma concentration of EX-1/NHC/CH2018,"in vivo; both, Beagle, 20 mg/kg, 24 hr",17.7 ng/mL
same,AUCmale/female of EX-1/NHC/CH2018,"in vivo; both, beagle, 20 mg/kg",69.2%
same,AUCmale/female of EX-2/CH2101,"in vivo; both, beagle, 20 mg/kg",96.1%
same,Plasma concentration of EX-1/NHC/CH2018,"in vivo; both, beagle, 20 mg/kg, 0.083 hr",148 ng/mL
same,Plasma concentration of EX-1/NHC/CH2018,"in vivo; both, beagle, 20 mg/kg, 0.25 hr",2014 ng/mL
same,Plasma concentration of EX-1/NHC/CH2018,"in vivo; both, beagle, 20 mg/kg, 0.5 hr",3703 ng/mL
same,Plasma concentration of EX-1/NHC/CH2018,"in vivo; both, beagle, 20 mg/kg, 1 hr",6118 ng/mL
same,Plasma concentration of EX-1/NHC/CH2018,"in vivo; both, beagle, 20 mg/kg, 2 hr",5958 ng/mL
same,Plasma concentration of EX-1/NHC/CH2018,"in vivo; both, beagle, 20 mg/kg, 4 hr",1600 ng/mL
same,AUC(0-t),"in vivo; female, Beagle, 20 mg/kg",5.54 ng·h/mL
same,Cmax,"in vivo; female, Beagle, 20 mg/kg",13 ng/mL
same,Tmax,"in vivo; female, Beagle, 20 mg/kg",15 min
same,Cmax of EX-2/CH2101,"in vivo; female, beagle, 10 mg/kg",14.0 ng/mL
same,Tmax of EX-2/CH2101,"in vivo; female, beagle, 10 mg/kg",60 min
same,Cmax,"in vivo; female, beagle, 10 mg/kg",12.2 ng/mL
same,concentration at 0.25 hr,"in vivo; female, beagle, 10 mg/kg",14 ng/mL
same,concentration at 1 hr,"in vivo; female, beagle, 10 mg/kg",12.2 ng/mL
same,concentration at 0.25 hr,"in vivo; female, beagle, 20 mg/kg",13 ng/mL
same,concentration at 1 hr,"in vivo; female, beagle, 20 mg/kg",11.3 ng/mL
same,AUC(0-t),"in vivo; male, Beagle, 20 mg/kg",5.32 ng·h/mL
same,Cmax,"in vivo; male, Beagle, 20 mg/kg",12.5 ng/mL
same,Tmax,"in vivo; male, Beagle, 20 mg/kg",15 min
same,AUC(0-t),"in vivo; male, beagle, 10 mg/kg",5.07 ng·h/mL
same,Cmax,"in vivo; male, beagle, 10 mg/kg",17.9 ng/mL
same,concentration at 0.25 hr,"in vivo; male, beagle, 10 mg/kg",17.9 ng/mL
same,concentration at 0.5 hr,"in vivo; male, beagle, 10 mg/kg",10.7 ng/mL
same,Tmax,"in vivo; male, beagle, 10 mg/kg",15 min
same,concentration at 0.083 hr,"in vivo; male, beagle, 20 mg/kg",11.2 ng/mL
same,concentration at 0.25 hr,"in vivo; male, beagle, 20 mg/kg",12.5 ng/mL
same,concentration at 0.5 hr,"in vivo; male, beagle, 20 mg/kg",10.5 ng/mL
